The text below walks through data of patent US8772503B2, “Processes for the preparation of deferasirox, and deferasirox polymorphs” (Mapi Pharma Ltd., priority 2009, dated 2014).

The nature of this data set: Heating/drying of the solid form, rechecked by XRPD and DSC. It is filed as physicochemical. Conditions: for Solid form after heating (XRPD, DSC): heated to 160° C. under vacuum, 5 minutes. On the procedure: Details of XRPD method used in the tests are mentioned below:
Details of DSC method used in the tests are mentioned below:
Heat from 30° C. to 350° C. at 10° C./min
Form II was further dried by heating (e.g. 60° C. for 1 h) after being checked by XRPD, DSC, TGA and NMR. The XRPD and DSC of Form II were rechecked following the dehydration process.
Form III was further dried at 120° C. after being checked by XRPD, DSC, TGA and NMR. The XRPD and DSC were rechecked.
Amorphous deferasirox was heated to 160° C. under vacuum and kept at this temperature for 5 min. The formed crystal was rechecked by XRPD and DSC.

Structures are written as SMILES.

With `O=C(O)c1ccc(-n2nc(-c3ccccc3O)nc2-c2ccccc2O)cc1` [Form II, 4-[3,5-Bis(2-hydroxyphenyl)-1H-1,2,4-triazol-1-yl]benzoic acid], the “Solid form after heating/drying (XRPD, DSC)” value (heated to 60° C. for 1 hr) is on record as “converted to Form I”. Consider `O=C(O)c1ccc(-n2nc(-c3ccccc3O)nc2-c2ccccc2O)cc1` [Form V, 4-[3,5-Bis(2-hydroxyphenyl)-1H-1,2,4-triazol-1-yl]benzoic acid], for which the “Solid form after heating/drying (XRPD, DSC)” value (dried at 120° C. for 1 hr, vacuum) is reported as “converted to Form I”. Regarding `O=C(O)c1ccc(-n2nc(-c3ccccc3O)nc2-c2ccccc2O)cc1` [amorphous deferasirox, 4-[3,5-Bis(2-hydroxyphenyl)-1H-1,2,4-triazol-1-yl]benzoic acid], the “Solid form after heating (XRPD, DSC)” value is reported as “converted to Form I”. For the same compound, the “Solid form after heating (XRPD, DSC)” value (listed as Amorphous) is given as “transformed into Form I”.
